What is called Ki is the equilibrium dissociation constant of an inhibitor or competing ligand from its target.

Drawing on BindingDB's records for doi:10.1016/S0960-894X(00)80308-X (1993), this text covers Ki for two compounds.

This experiment concerns the target Human immunodeficiency virus type 1 protease (Human immunodeficiency virus 1, UniProt Q72874). Briefly: ChEBML_159632. As for the experimental part:
Inhibitory concentration required to inhibit HIV-1 protease was determined

The compound `N=C=C(C(=O)[C@H](Cc1ccccc1)NC(=O)OCc1ccccc1)c1ccc([N+](=O)[O-])cc1` gave a Ki of 30 µM.
As to `CC(C)(C)OC(=O)N[C@H](C(=O)C(=C=N)c1ccc([N+](=O)[O-])cc1)C(=O)C(N)c1ccccc1` (some centres not stated), the Ki came out at 30 µM.
